Earlier results on one compound are cited in patent US20120100192A1, “LOCAL THERAPEUTIC RELEASE DEVICE” (DEXCEL PHARMA TECHNOLOGIES LTD., priority 2009, published 2012).

In series [1] the test system is periodontal disease. As to conditions: 100 mg/day for two months; standardized radiography, radiopharmaceutical uptake.
Series [2] relates to periodontal disease. The following applies: topical toothpaste, 1% w/w, twice daily for 12 months.
The subject of series [3] is naturally occurring periodontitis. As to conditions: application for 6-12 months, beagle dogs.
For the next series, the system named is alveolar bone loss. As to conditions: 24 months, FBP-treated patient group.
Series [4] concerns experimentally induced periodontal disease. As to conditions: Macaca mulatta monkeys.

Regarding `CC(C(=O)O)c1ccc(-c2ccccc2)c(F)c1` (centres unmarked) [FBP, flurbiprofen], in the series on periodontal disease [1], the “Effect on bone metabolism” value was “increased bone metabolism”. Further, in the series on periodontal disease [2], the Effect on bone result is given as “statistically significant bone gain”. For the same compound, the “Effect on alveolar bone loss” value in series [3] is “inhibited alveolar bone loss”. Also, the “Effect on bone loss” value in the series on alveolar bone loss is recorded as “reduction in bone loss”. Besides, in series [4], the “Effect on attachment, bleeding on probing and gingival redness” value is “significant inhibition of attachment, bleeding on probing and gingival redness”.
